Experimental data: ChEMBL document CHEMBL1127838, “Development of a receptor-interaction model for serotonin 5-HT2 receptor antagonists. Predicting selectivity with respect to dopamine D2 receptors” (J Med Chem, 1994)
pIC50, pKi: −log10 of the molar value.

Key:
[1] = molecular target: Serotonin 2 (5-HT2) receptor (Rattus norvegicus, UniProt P30994+P08909+P14842); assay: Binding affinity at serotonin 5-hydroxytryptamine 2 receptor by [3H]ketanserin displacement.; assay type: protein assay
[2] = molecular target: D(2) dopamine receptor (Rattus norvegicus, UniProt P61169); assay: Binding affinity at dopamine D2 receptor by [3H]spiperone displacement.
D(2) dopamine receptor, sequence (P61169 whole entry): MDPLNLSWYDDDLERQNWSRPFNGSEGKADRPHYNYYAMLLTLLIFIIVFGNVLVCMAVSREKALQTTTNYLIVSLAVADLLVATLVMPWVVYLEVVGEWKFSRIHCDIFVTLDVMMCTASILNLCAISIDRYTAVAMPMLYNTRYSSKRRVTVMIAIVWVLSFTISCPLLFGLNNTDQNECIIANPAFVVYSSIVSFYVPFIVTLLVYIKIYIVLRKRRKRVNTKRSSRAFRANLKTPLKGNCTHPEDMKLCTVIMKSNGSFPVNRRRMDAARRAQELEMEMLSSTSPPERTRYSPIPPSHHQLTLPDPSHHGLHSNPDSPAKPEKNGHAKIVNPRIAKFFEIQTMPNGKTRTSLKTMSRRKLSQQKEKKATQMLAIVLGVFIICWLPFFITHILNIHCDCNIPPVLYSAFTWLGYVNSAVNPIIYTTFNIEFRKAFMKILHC

Row | Structure (SMILES) | IC50 [1] [nM] | pIC50 ([2]; read-out: IC50) | other results
1 | O=C1NCCN1CCN1CCN([C@@H]2C[C@@H](c3ccc(F)cc3)c3cc(Cl)ccc32)CC1 | 2.6 | – | –
2 | O=C1NCCN1CCN1CC=C(c2cn(-c3ccc(F)cc3)c3ccccc23)CC1 | 1.7 | 8.29 | –
3 | CN1CCC(=C2c3ccccc3C(O)c3ccccc32)CC1 (stereo not drawn) | 2.6 | 5.80 | –
4 | CN1CCC(=C2c3ccccc3C=Cc3ccccc32)CC1 [CYPROHEPTADINE] | – | – | pIC50 [2]: 6.85
5 | OCCN1CCN([C@@H]2C[C@@H](c3ccc(F)cc3)c3ccc(C(F)(F)F)cc32)CC1 [TEFLUDAZINE] | 3.1 | – | –
6 | CN1CCC(=C2c3ccccc3C=Cc3ccc(Br)cc32)CC1 | – | – | pKi [2]: 8.40
